Assay results from patent publication US20090209522A1, “Heterocyclic Non-Peptide GNRH Antagonists” (priority 2005, published 2009).

Legend:
human GnRH receptors = biological target: T1, human GnRH receptors (Homo sapiens, UniProt P30968); assay: Human GnRH receptor functional assay (intracellular calcium release); assay type: cell-based; details: CHO-K1 cells expressing human GnRH receptors; block of GnRH (EC80)-induced intracellular calcium release; 20 minutes pre-incubation
T1 construct: expressed in transfected cells; host or cells: CHO-K1
T1 sequence (P30968 1-328): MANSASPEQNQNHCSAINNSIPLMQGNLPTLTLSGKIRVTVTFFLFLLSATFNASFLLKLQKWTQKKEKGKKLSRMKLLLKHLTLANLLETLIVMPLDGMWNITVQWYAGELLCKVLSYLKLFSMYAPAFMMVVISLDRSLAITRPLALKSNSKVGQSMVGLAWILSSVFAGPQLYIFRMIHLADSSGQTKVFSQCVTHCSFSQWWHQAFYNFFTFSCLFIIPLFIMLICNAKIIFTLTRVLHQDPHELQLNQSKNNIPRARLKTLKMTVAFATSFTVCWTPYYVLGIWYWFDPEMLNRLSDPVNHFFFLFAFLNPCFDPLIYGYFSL
Procedure: Human GnRH Receptor Functional Assay
GnRH-receptor antagonists may be functionally assessed by measurement of change in intracellular calcium levels induced by Gαq mediated increase in IP3 levels. The ability of compounds to block the intracellular release of calcium by GnRH in CHO-K1 cells expressing human GnRH receptors is determined as a measure of the compound's antagonist activity in vitro. Approximately 30,000 cells per assay well (half well 96 well assay plate—Corning) are seeded in normal culture medium. Twenty four hours after seeding the cells are loaded with a calcium sensitive fluorescent dye by replacing the culture medium with assay buffer (1× Hanks buffered saline, 25 mM HEPES, 0.1% w/v fatty acid free BSA, pH7.4) containing 2.5 mM probenecid and 1× Calcium Plus reagent (Molecular) Devices. Cells are incubated at 37° C. for 1 hour to allow for dye uptake. To test for antagonist activity, compounds at a concentration range between 0.1 nM-3.2 μM are added to the assay wells and allowed to incubate 20 minutes prior to stimulation with GnRH. After incubation with test compounds the assay plate is placed in a Flexstation II (Molecular Devices) and GnRH is added at the determined EC80 concentration (final). Ligand-dependent changes in intracellular calcium levels are determined by measuring changes in fluorescence of the dye at […] following excitation at 485 nm. Percentage inhibition curves are plotted using 4-parameter fit algorithm and IC50 values calculated for each compound.

| SMILES | melting point | IC50 (human GnRH receptors) |
| --- | --- | --- |
| COc1nc(NCCCN2CCOCC2)nc(OC)c1NC(=O)c1coc(Oc2cccc(C(C)(C)C)c2)n1 [Example 1, 2-(3-tert-butylphenoxy)-N-(4,6-dimethoxy-2-(3-morpholinopropylamino)pyrimidin-5-yl)oxazole-4-carboxamide] | 85 °C | – |
| COc1nc(NCCCN2CCOCC2)nc(OC)c1NC(=O)c1csc(Oc2cccc(C(C)(C)C)c2)n1 [Example 2, 2-(3-tert-butylphenoxy)-N-(4,6-dimethoxy-2-(3-morpholinopropylamino)pyrimidin-5-yl)thiazole-4-carboxamide] | 68 °C | 485 nM |
| COc1nc(NCCN(C)C)nc(OC)c1NC(=O)c1csc(Oc2cc(C(C)(C)C)ccc2C)n1 [Example 5, 2-(5-tert-Butyl-2-methylhenoxy)-N-(2-(2-(dimethylamino)ethylamino)-4,6-dimethoxypyrimidin-5-yl)thiazole-4-carboxamide] | – | 193 nM |
| COc1cc2c(cc1Oc1nc(C(=O)Nc3c(OC)nc(NCCNC(C)C)nc3OC)cs1)C(C)(C)CC2 [Example 24, N-(2-(2-(Isopropylamino)ethylamino)-4,6-dimethoxypyrimidin-5-yl)-2-(6-methoxy-3,3-dimethyl-2,3-dihydro-1H-inden-5-yloxy)thiazole-4-carboxamide] | – | 4 nM |
